According to ChEMBL document CHEMBL1201862, “PubChem BioAssay data set” (2004):
Activity calls are given as the source filed them.

Assays:
[1] = target: Voltage-gated inwardly rectifying potassium channel KCNH2 (Homo sapiens, UniProt Q12809); conditions: Potency;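 also: confirmatory quantitative high-throughput screen measuring inhibition of hERG channel activity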
Cytochrome P450 3A4 = Cytochrome P450 3A4 (Homo sapiens, UniProt P08684); conditions: Potency;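 also: confirmatory qHTS run detecting inhibitors and substrates of CYP3A4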
INS1 [2] = test: protection from cytokine-induced mitochondrial depolarization, dose response, cell-based, INS-1E, JC-1 fluorescence ratio, dry powder (AID 488931); format: functional; conditions: Rattus norvegicus
HEK293 [3] = test: cells; format: functional, cell-based; conditions: Homo sapiens
cells [4] = format: functional, cell-based
[5] = Vero E6 cell cytotoxicity, dose response, cytotoxicity control for non-replicating M. tuberculosis project, secondary assay (AID 492998); format: functional, VeroE6; conditions: Vero C1008
cells [6] = format: functional
HEK293 [7] = test: NOD1 signaling inhibitors, primary screen, cell-based, luminescence, uHTS (AID 1578); format: functional; conditions: Homo sapiens
Streptokinase A = target: T1, Streptokinase A (Streptococcus pyogenes serotype M1, UniProt P10520); test: S. pyogenes streptokinase expression inhibitors, potency, dose response, plasminogen activation absorbance, OD405 (AID 1914); format: functional, Streptococcus pyogenes M1 GAS;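 also: secreted streptokinase activity via plasminogen activation per viability signal from cell pellet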
T1 sequence (P10520 whole entry): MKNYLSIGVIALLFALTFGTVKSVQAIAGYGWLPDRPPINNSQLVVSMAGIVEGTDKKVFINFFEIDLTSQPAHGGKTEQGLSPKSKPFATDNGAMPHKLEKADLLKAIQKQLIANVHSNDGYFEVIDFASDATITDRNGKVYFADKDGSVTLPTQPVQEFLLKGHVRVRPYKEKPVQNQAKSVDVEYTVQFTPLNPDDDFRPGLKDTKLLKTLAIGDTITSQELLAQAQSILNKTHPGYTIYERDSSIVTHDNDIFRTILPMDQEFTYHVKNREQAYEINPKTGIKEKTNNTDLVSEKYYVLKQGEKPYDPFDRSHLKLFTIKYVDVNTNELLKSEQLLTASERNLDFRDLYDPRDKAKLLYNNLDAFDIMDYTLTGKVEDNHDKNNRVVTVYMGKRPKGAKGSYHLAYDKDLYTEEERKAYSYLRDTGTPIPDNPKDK

[8] = THP-1 cell cytotoxicity, dose response, cytotoxicity control for non-replicating M. tuberculosis project (AID 489025); format: functional
Streptococcus = test: Group A Streptococcus viability loss, dose response, counter-screen for streptokinase expression inhibitor project, luminescence, BacTiterGlo (AID 1915); format: functional, organism-based;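 also: potency for reduction of bacterial viability or growth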
INS1 [9] = test: beta cell apoptosis inhibitors, cytokine rescue, dose response, luminescence, retest (AID 449756); format: functional, cell-based; conditions: Rattus norvegicus;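 also: cell death triggered by IL-1 beta plus TNF-alpha plus IFN-gamma mixture; protective hits raise ATP signal compared with cytokine alone wells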
HEK293 [10] = test: cells; format: functional, cell-based; conditions: Homo sapiens; remark: listed apart in the source
A-375 = test: MITF: Counter assay: A375 proliferation Measured in Cell-Based System Using Plate Reader - 2084-03_Inhibitor_Dose_DryPowder_Activity. [Related pubchem assays (depositor defined):AID488944]; format: functional; conditions: Homo sapiens
[11] = target: T2, Microphthalmia-associated transcription factor (Homo sapiens, UniProt O75030); test: TRPM1 promoter luciferase signal decrease, dose response, MITF inhibitor project, cell-based, SK-MEL-5, cherry-picked, set 3 (AID 493073); format: functional
T2 sequence (O75030 whole entry): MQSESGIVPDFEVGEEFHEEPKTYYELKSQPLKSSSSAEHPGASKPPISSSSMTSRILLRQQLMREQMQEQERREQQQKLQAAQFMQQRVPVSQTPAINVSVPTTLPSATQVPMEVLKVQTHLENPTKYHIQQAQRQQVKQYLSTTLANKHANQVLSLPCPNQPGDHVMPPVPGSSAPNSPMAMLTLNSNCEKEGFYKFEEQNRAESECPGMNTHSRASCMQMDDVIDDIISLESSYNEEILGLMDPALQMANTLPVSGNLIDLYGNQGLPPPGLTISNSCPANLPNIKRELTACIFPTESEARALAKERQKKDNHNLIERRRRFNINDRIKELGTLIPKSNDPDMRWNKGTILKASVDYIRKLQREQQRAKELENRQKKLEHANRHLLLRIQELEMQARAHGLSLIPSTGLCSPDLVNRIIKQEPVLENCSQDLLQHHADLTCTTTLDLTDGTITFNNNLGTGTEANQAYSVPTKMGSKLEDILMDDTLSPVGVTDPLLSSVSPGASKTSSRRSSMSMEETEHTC

HEK293 [12] = test: NOD2 signaling inhibitors in MDP-stimulated cells, cell-based, uHTS, luminescence (AID 2001); format: functional; conditions: Homo sapiens
cells [13] = format: functional, cell-based; remark: listed apart in the source
HEK293 [14] = test: cells; format: functional, cell-based; conditions: Homo sapiens; remark: listed apart in the source
[15] = target: Nucleotide-binding oligomerization domain-containing protein 2 (Homo sapiens, UniProt Q9HC29); test: NOD2 signaling inhibitors, cell-based, luminescence, uHTS, HEK293 (AID 1566); format: functional
[16] = tested on: Streptococcus sp. 'group A'; test: growth inhibition of control SK(-) GAS strain, dose response, counter-screen for streptokinase expression inhibitor project, luminescence, kanamycin, BacTiterGlo, confirmation (AID 1900); format: functional, organism-based
[17] = HepG2 cell cytotoxicity, dose response, cytotoxicity control for non-replicating M. tuberculosis project (AID 489018); format: functional; conditions: Mycobacterium tuberculosis
[18] = cytotoxicity toward NIH3T3 fibroblasts, dose response, counter-screen, cell-based, ATP luminescence, mouse fibroblasts (AID 2010); format: functional;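 also: cells exposed to compound for about 90 hours before reading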
[19] = target: C-C chemokine receptor type 6 (Homo sapiens, UniProt P51684); test: CCR6 receptor antagonists, dose response, cell-based, luminescent beta-arrestin readout (AID 504728); format: functional
Beta-galactosidase = Beta-galactosidase (Escherichia coli, UniProt Q8VNN2); test: beta-galactosidase enzyme inhibitors and activators, dose response, artefact control for CCR6 antagonist project, biochemical, E. coli enzyme, set 3 (AID 504712); format: functional
[20] = inhibitors of intracellular T. cruzi replication, confirmation, NIH3T3 host cells, beta-gal luminescence (AID 2044); format: functional, cell-based;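 also: intracellular parasites grown in NIH/3T3 mouse fibroblasts as host cells; luminescent beta-galactosidase reporter signal from transgenic T. cruzi replicating inside host cells; inhibitors lower the luminescence signal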
Nonstructural protein 1 = Nonstructural protein 1 (Influenza A virus, UniProt Q194T2); format: functional, Influenza A virus (A/California/07/2009(H1N1))
Chain of Nonstructural protein 1 (Q194T2 whole entry): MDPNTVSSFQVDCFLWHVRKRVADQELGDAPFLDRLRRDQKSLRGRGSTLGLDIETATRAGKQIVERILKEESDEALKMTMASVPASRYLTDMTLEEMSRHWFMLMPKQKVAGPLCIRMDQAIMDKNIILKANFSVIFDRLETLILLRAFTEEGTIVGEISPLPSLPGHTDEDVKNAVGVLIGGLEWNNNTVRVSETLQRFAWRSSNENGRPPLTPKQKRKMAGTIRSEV

Chain of Voltage-gated inwardly rectifying potassium channel KCNH2 (Q12809 whole entry): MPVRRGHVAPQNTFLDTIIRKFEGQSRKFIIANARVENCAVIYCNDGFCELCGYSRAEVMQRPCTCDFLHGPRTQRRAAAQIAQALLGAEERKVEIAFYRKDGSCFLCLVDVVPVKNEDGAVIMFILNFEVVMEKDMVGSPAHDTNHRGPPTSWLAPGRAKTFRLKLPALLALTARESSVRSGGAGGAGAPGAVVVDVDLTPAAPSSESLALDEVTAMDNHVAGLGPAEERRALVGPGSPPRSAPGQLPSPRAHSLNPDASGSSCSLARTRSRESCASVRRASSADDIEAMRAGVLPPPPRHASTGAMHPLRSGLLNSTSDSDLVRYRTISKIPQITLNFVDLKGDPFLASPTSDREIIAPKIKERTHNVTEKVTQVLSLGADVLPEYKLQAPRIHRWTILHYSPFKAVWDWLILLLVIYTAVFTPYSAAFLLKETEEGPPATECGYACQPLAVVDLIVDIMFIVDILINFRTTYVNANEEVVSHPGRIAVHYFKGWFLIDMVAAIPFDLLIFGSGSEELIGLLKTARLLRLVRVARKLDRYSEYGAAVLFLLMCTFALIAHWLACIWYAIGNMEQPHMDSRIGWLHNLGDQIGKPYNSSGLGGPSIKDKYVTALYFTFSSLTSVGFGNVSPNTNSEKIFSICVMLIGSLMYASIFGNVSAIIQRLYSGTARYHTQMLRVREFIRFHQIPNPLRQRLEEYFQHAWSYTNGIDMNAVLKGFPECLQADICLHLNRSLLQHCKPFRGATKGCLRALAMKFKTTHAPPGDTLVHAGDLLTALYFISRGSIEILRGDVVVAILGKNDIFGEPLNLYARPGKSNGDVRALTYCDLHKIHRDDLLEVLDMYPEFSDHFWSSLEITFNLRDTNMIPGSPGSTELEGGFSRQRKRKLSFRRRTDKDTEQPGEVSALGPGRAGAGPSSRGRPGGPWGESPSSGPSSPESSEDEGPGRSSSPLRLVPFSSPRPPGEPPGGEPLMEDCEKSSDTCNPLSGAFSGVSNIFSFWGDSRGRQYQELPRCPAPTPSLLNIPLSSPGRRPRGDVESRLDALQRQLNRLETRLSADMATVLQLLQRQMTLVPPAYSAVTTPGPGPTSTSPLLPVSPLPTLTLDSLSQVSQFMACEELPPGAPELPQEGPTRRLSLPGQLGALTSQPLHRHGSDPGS
Chain of Nucleotide-binding oligomerization domain-containing protein 2 (Q9HC29 whole entry, the tested form may be a part): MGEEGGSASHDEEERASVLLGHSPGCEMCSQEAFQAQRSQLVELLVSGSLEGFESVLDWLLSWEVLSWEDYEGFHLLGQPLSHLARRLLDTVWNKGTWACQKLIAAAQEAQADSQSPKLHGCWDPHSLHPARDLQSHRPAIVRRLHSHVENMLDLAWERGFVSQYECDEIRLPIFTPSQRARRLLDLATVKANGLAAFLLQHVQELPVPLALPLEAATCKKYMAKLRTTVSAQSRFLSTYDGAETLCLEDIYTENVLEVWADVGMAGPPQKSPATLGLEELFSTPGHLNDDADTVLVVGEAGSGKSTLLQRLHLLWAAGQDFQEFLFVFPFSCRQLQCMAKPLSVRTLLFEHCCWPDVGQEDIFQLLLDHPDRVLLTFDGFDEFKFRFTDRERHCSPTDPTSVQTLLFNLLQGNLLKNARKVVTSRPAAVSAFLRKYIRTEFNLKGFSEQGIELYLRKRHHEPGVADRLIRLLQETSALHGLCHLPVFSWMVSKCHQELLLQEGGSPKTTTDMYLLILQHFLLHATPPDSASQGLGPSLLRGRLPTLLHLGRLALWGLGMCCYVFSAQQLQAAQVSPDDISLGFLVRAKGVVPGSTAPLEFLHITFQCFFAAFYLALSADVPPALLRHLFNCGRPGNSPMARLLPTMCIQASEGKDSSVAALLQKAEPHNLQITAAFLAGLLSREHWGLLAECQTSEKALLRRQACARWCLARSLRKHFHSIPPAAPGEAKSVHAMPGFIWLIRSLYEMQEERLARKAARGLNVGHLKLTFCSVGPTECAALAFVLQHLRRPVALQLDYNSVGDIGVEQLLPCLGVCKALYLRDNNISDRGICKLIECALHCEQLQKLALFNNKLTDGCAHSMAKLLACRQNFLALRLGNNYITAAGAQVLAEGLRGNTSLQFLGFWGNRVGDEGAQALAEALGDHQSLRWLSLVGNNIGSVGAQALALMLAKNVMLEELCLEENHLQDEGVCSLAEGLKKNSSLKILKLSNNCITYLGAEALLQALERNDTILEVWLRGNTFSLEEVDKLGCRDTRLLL
Chain of Cytochrome P450 3A4 (P08684 whole entry): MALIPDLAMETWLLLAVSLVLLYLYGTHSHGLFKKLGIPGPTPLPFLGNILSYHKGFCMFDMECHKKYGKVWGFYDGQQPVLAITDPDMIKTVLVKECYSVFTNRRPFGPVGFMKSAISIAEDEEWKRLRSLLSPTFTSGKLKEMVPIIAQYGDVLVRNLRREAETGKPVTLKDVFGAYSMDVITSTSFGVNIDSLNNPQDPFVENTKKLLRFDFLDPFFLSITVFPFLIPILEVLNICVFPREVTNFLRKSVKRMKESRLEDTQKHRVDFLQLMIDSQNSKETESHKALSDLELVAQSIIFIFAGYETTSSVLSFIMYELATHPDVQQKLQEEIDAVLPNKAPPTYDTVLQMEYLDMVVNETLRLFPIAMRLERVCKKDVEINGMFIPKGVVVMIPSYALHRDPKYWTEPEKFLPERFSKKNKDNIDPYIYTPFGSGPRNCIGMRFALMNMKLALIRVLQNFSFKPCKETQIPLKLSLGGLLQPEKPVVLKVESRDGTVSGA
Chain of Beta-galactosidase (Q8VNN2 whole entry): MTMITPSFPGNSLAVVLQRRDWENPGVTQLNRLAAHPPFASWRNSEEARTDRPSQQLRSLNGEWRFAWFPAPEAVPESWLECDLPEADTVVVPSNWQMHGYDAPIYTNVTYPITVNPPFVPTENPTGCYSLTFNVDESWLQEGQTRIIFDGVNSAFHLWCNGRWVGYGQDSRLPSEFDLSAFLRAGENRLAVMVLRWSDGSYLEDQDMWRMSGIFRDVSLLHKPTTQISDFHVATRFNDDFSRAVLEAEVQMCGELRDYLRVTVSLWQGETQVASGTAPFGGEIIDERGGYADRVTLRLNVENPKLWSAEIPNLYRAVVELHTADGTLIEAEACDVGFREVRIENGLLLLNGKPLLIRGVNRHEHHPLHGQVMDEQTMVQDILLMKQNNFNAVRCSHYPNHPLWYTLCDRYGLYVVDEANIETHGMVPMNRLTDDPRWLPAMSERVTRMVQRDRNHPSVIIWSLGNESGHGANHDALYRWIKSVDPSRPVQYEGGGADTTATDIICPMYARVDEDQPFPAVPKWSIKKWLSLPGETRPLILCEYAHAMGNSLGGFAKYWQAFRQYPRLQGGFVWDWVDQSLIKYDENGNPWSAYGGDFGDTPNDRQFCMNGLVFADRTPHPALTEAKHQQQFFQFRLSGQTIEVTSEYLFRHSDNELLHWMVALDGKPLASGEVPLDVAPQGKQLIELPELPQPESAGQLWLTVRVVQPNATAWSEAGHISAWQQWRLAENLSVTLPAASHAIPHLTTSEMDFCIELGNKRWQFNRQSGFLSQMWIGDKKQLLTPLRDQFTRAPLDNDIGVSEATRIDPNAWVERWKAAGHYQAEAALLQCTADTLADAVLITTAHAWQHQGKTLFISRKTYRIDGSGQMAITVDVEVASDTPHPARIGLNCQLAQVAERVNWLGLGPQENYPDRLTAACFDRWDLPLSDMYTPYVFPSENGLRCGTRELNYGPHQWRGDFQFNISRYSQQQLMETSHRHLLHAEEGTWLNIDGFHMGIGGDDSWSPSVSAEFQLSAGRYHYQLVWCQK
Chain of C-C chemokine receptor type 6 (P51684 whole entry): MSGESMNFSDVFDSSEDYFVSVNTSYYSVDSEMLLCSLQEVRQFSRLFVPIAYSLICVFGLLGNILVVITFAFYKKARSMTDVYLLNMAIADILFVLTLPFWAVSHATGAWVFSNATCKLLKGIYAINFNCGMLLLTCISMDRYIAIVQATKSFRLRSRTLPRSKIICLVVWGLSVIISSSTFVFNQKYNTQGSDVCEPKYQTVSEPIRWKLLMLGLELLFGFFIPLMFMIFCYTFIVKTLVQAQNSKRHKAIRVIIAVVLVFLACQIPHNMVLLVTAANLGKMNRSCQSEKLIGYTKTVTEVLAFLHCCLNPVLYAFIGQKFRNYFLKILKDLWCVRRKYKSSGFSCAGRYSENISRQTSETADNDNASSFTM

Clc1ccc(C(Cl)(Cl)Cl)c(Cl)c1
AC50 [1]: 20 µM (inconclusive)
AC50 (Cytochrome P450 3A4): 31.6 µM (inconclusive)

COc1ccc(S(=O)(=O)N(C)C[C@@H]2Oc3c(NC(=O)c4ccncc4)cccc3C(=O)N([C@@H](C)CO)C[C@H]2C)cc1
AC50 (INS1 [2]): 32.7 µM (active)

O=[N+]([O-])c1cc(Cl)cc(/C=N\Nc2ccccn2)c1O
IC50 (HEK293 [3]): > 20 µM (inactive)
EC50 (cells [4]): > 350 µM (not active)
CC50 [5]: 1.24 µM (active)
IC50 (cells [6]): 6.12 µM (active)
EC50 (HEK293 [7]): 9.12 µM (active)
EC50 (Streptokinase A): 11.1 µM (active)
CC50 [8]: 0.147 µM (active)
EC50 (Streptococcus): 7.53 µM (active)
AC50 (INS1 [9]): 0.964 µM (active)
IC50 (HEK293 [10]): > 20 µM (inactive)
AC50 (A-375): 40.6 µM (active)
AC50 [11]: 4.49 µM (active)
IC50 (HEK293 [12]): > 20 µM (inactive)
EC50 (cells [13]): 11.8 µM (active)
IC50 (HEK293 [14]): > 20 µM (inactive)
EC50 [15]: > 20 µM (inactive)
EC50 [16]: 3.56 µM (active)
CC50 [17]: 0.987 µM (active)
EC50 [18]: 5.6 µM (active)
IC50 [19]: > 66.6 µM (inactive)
IC50 (Beta-galactosidase): > 66.6 µM (inactive)
EC50 [20]: 0.204 µM (active)
IC50 (Nonstructural protein 1): 3.89 µM (active)
